Data as given in ChEMBL document CHEMBL3272001, “Nuclear analogues of beta-lactam antibiotics. 4. Total synthesis of bisnorisopenicillins from beta-lactam precursors” (1978).
In brackets after ≈: the same amount, converted by molar mass.

What was measured:
Assay type in all cases: functional
Staphylococcus aureus = assay: Antibacterial activity against Staphylococcus aureus SK&F 23390 assessed as […]
Enterococcus faecalis = assay: Antibacterial activity against Streptococcus faecalis HH 34358 assessed as […]
Escherichia coli [1] = assay: Antibacterial activity against Escherichia coli SK&F 12140 assessed as […]
Escherichia coli [2] = assay: Antibacterial activity against Escherichia coli HH 33779 assessed as […]
Klebsiella pneumoniae = assay: Antibacterial activity against Klebsiella pneumoniae SK&F 1200 assessed as […]
Serratia marcescens = assay: Antibacterial activity against Serratia marcescens ATCC 13880 assessed as […]
Morganella morganii = assay: Antibacterial activity against Proteus morganii 179 assessed as […]
Klebsiella aerogenes = assay: Antibacterial activity against Enterobacter aerogenes ATCC 13048 assessed as […]

CC(=O)OCC1=C(C(=O)O)N2C(=O)[C@@H](NC(=O)Cc3cccs3)[C@H]2SC1 [CEPHALOTHIN]
MIC (Staphylococcus aureus): 0.2 µM (≈ 0.0793 µg/mL)
MIC (Enterococcus faecalis): 14 µM (≈ 5.55 µg/mL)
MIC (Escherichia coli [1]): 7 µM (≈ 2.78 µg/mL)
MIC (Escherichia coli [2]): 7 µM (≈ 2.78 µg/mL)
MIC (Klebsiella pneumoniae): 3.6 µM (≈ 1.43 µg/mL)
MIC (Serratia marcescens): > 453 µM
MIC (Morganella morganii): > 453 µM
MIC (Klebsiella aerogenes): 14 µM (≈ 5.55 µg/mL)
